Active and inactive are the calls of the source. No cut-off for these calls is given here.
Assays:
[1] = biological target: Sigma non-opioid intracellular receptor 1 (Cavia porcellus, UniProt Q60492); assay: Displacement of [3H]-pentazocine from sigma1 receptor in guinea pig brain membranes after 120 mins by liquid scintillation counting; assay type: cell membranes, Membrane
[2] = biological target: T1, Sigma intracellular receptor 2 (Rattus norvegicus, UniProt Q5U3Y7); assay: Displacement of [3H]-DTG from sigma2 receptor in rat liver membranes after 120 mins by liquid scintillation counting; assay type: cell membranes, Membrane
T1 sequence (Q5U3Y7 whole entry): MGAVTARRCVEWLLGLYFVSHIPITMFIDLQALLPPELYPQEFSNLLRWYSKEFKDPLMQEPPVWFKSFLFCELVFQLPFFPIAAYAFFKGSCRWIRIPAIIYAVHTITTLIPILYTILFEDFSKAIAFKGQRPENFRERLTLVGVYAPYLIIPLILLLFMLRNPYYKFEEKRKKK

[3] = Displacement of [3H]-(+)-MK 801 from PCP binding site of NMDA receptor in pig brain cortex membranes after 120 mins by liquid scintillation spectrometry; assay type: cell membranes, Sus scrofa
[4] = biological target: C-8 sterol isomerase ERG2 (Saccharomyces cerevisiae S288c) (UniProt P32352); assay: Inhibition of yeast sterol-delta8/7-isomerase at 50 uM
C-8 sterol isomerase ERG2 (Saccharomyces cerevisiae S288c), sequence (P32352 whole entry, looked up): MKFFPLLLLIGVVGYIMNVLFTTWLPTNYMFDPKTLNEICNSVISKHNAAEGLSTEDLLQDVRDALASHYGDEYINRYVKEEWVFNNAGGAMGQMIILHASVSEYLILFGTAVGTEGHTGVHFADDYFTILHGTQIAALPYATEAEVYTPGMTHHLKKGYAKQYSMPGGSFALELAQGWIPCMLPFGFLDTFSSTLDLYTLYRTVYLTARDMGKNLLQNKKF

[5] = biological target: C-8 sterol isomerase ERG2 (Saccharomyces cerevisiae S288c) (UniProt P32352); assay: Inhibition of yeast sterol-delta8/7-isomerase assessed as accumulation of cholesta-8-en-3beta-ol at 1 uM
[6] = biological target: C-8 sterol isomerase ERG2 (Saccharomyces cerevisiae S288c) (UniProt P32352); assay: Inhibition of yeast sterol-delta8/7-isomerase assessed as accumulation of cholesta-8-en-3beta-ol at 50 uM
[7] = biological target: C-8 sterol isomerase ERG2 (Saccharomyces cerevisiae S288c) (UniProt P32352); assay: Inhibition of yeast sterol-delta8/7-isomerase assessed as accumulation of cholesta-8,14-dien-3beta-ol at 1 uM
[8] = biological target: C-8 sterol isomerase ERG2 (Saccharomyces cerevisiae S288c) (UniProt P32352); assay: Inhibition of yeast sterol-delta8/7-isomerase assessed as accumulation of cholesta-8,14-dien-3beta-ol at 50 uM
[9] = biological target: C-8 sterol isomerase ERG2 (Saccharomyces cerevisiae S288c) (UniProt P32352); assay: Inhibition of yeast sterol-delta8/7-isomerase assessed as accumulation of cholesta-7-en-3beta-ol at 1 uM
[10] = biological target: C-8 sterol isomerase ERG2 (Saccharomyces cerevisiae S288c) (UniProt P32352); assay: Inhibition of yeast sterol-delta8/7-isomerase assessed as accumulation of cholesta-7-en-3beta-ol at 50 uM
[11] = biological target: C-8 sterol isomerase ERG2 (Saccharomyces cerevisiae S288c) (UniProt P32352); assay: Inhibition of yeast sterol-delta8/7-isomerase assessed as accumulation of cholesta-5,7-dien-3beta-ol at 1 uM
[12] = biological target: C-8 sterol isomerase ERG2 (Saccharomyces cerevisiae S288c) (UniProt P32352); assay: Inhibition of yeast sterol-delta8/7-isomerase assessed as accumulation of cholesta-5,7-dien-3beta-ol at 50 uM
[13] = biological target: T1, Sigma intracellular receptor 2; assay: Displacement of [3H]-DTG from sigma2 receptor in rat liver membranes in presence of (+)-pentazocine; assay type: cell membranes, Membrane
[14] = biological target: C-8 sterol isomerase ERG2 (Saccharomyces cerevisiae S288c) (UniProt P32352); assay: Inhibition of yeast sterol-delta8/7-isomerase at 1 uM
HL-60 = assay: Inhibition of cholesteriol biosynthesis in human HL60 cells assessed as incorporation of 2-13C-acetate; assay type: functional, cell-based
Sus scrofa = species on record: Sus scrofa; assay: Displacement of [3H]-(+)-MK 801 from PCP binding site of NMDA receptor in pig brain cortex membranes at 1 uM after 120 mins by liquid scintillation spectrometry; assay type: cell membranes

Sigma non-opioid intracellular receptor 1, sequence (Q60492 whole entry): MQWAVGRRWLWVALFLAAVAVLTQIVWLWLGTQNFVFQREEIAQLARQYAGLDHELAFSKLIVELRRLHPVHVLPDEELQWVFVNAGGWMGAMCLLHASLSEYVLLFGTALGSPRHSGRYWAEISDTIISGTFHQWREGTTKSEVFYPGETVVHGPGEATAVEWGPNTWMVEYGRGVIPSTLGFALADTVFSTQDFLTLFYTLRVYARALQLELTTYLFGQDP

SMILES | Ki [1] [nM] | Ki [2] [nM] | IC50 [3] [nM] | inhibition [4] | inhibition [5] | inhibition [6] | inhibition [7] | inhibition [8] | inhibition [9] | inhibition [10] | inhibition [11] | inhibition [12] | Ki [13] [nM] | inhibition [14] | IC50 (HL-60) [nM] | inhibition (Sus scrofa) [%]
c1ccc(C[C@@H]2CN(Cc3ccccc3)CCCN2Cc2ccccc2)cc1 | 80 | 514 | > 1000 | Active | Active | Active | Active | Active | Active | Active | Active | Active |  |  |  | 
c1ccc2c(c1)CCCC2CCCCN1CCN(C2CCCCC2)CC1 (stereo unspecified) |  |  |  |  |  |  |  |  |  |  |  |  | 14.6 |  |  | 
CCCCN1CCCN(Cc2ccccc2)[C@@H](Cc2ccccc2)C1 | 3.7 | 238 | > 1000 |  | inactive | inactive | Active | Active | Active | Active | Active | Active |  | Active | 742 | 
OCC(c1ccccc1)N1CCCN(Cc2ccccc2)[C@H](Cc2ccccc2)C1 (stereo partly specified) | 27 | > 1000 | 1000 |  |  |  |  |  |  |  |  |  |  |  |  | 50
COc1ccc(CN2CCCN(Cc3ccccc3)[C@H](Cc3ccccc3)C2)cc1 | 42 | 426 | > 1000 | Active | Active | inactive | Active | Active | Active | Active | Active | Active |  |  |  | 
COc1cccc2c1CCCC2CCCN1CCN(C2CCCCC2)CC1 (stereo unspecified) |  |  |  |  |  |  |  |  |  |  |  |  | 0.34 |  |  | 
c1ccc(CCN2CCCN(Cc3ccccc3)[C@@H](Cc3ccccc3)C2)cc1 | 40 | 426 | > 1000 | Active | Active | Active | Active | Active | Active | Active | Active | Active |  |  |  | 
OC(CN1CCCN(Cc2ccccc2)[C@H](Cc2ccccc2)C1)c1ccccc1 (stereo partly specified) | 51 | > 1000 | 1000 |  |  |  |  |  |  |  |  |  |  |  |  | 50
c1ccc(C[C@H]2CN(Cc3ccccc3)CCCN2Cc2ccccc2)cc1 | 71 | > 1000 | > 1000 | Active | Active | inactive | Active | Active | Active | Active | Active | Active |  |  |  | 
